# Patent publication US8557796B2, “Substituted 1-oxa-2,8-diaza-spiro [4,5] dec-2-ene derivatives and related treatment methods” (Gruenenthal GmbH, priority 2001, dated 2013)
# System: batrachotoxin (BTX) binding site (binding site 2) of the sodium channel
# Experiment: Bond test on the sodium channel, binding site 2 (BTX bond), [3H]-batrachotoxinin A20 α-benzoate displacement
# Details: rat cerebrocortex synaptosomes
row,SMILES,"BTX bond, 10 μM, % inhibition [%]"
1,"O=C(NCc1cccs1)C1=NOC2(CCN(C(=O)c3ccc(SC(F)(F)F)cc3)CC2)C1 [Example 135, 8-(4-trifluoromethylsulphanyl-benzoyl)-1-oxa-2,8-diaza-spiro[4,5]dec-2-ene-3-carboxylic acid (thiophen-2-ylmethyl)-amide]",85
2,"CCCC(=O)N1CCC2(CC1)CC(C(=O)Nc1ccccc1)=NO2 [Example 85, 8-butyryl-1-oxa-2,8-diaza-spiro[4,5]dec-2-ene-3-carboxylic acid phenylamide]",62
3,"CN(C)S(=O)(=O)N1CCC2(CC1)CC(C(=O)N1CCN(Cc3ccc(C(C)(C)C)cc3)CC1)=NO2 [Example 189, 3-[4-(4-tert-butyl-benzyl)-piperazine-1-carbonyl]-1-oxa-2,8-diaza-spiro[4,5]dec-2-ene-8-sulphonic acid dimethylamide]",69
4,"CC(NC(=O)C1=NOC2(CCN(S(=O)(=O)c3ccc(Cl)s3)CC2)C1)c1cccc2c1OCCO2 (stereo not shown) [Example 140, 8-(5-chloro-thiophene-2-sulphonyl)-1-oxa-2,8-diaza-spiro[4,5]dec-2-ene-3-carboxylic acid [1-(2,3-dihydro-benzo[1,4]dioxin-5-yl)-ethyl]-amide]",60
5,"Cc1ccc(S(=O)(=O)N2CCC3(CC2)CC(C(=O)N(CCC#N)Cc2ccccc2)=NO3)cc1 [Example 28, 8-(toluene-4-sulphonyl)-1-oxa-2,8-diaza-spiro[4,5]dec-2-ene-3-carboxylic acid benzyl-(2-cyano-ethyl)-amide]",52
6,"O=C(NCc1ccccc1)C1=NOC2(CCN(C(=O)COCc3ccccc3)CC2)C1 [Example 171, 8-(2-benzyloxy-acetyl)-1-oxa-2,8-diaza-spiro[4,5]dec-2-ene-3-carboxylic acid benzylamide]",44
7,O=C(NCc1cccs1)C1=NOC2(CCN(C(=O)C=Cc3ccccc3)CC2)C1 [Example 106],62
8,"Cc1cccc(N2CCN(C(=O)C3=NOC4(CCN(S(=O)(=O)c5cccs5)CC4)C3)CC2C)c1 (stereo not drawn) [Example 31, (3-methyl-4-m-tolyl-piperazin-l-yl)-[8-(thiophene-2-sulphonyl)-1-oxa-2,8-diaza-spiro[4,5]dec-2-en-3-yl]-methanone]",80
9,"CN1CCCC1CCNC(=O)C1=NOC2(CCN(S(=O)(=O)c3ccc(Cl)s3)CC2)C1 (stereo not shown) [Example 61, 8-(5-chloro-thiophene-2-sulphonyl)-1-oxa-2,8-diaza-spiro[4,5]dec-2-ene-3-carboxylic acid [2-(1-methyl-pyrrolidin-2-yl)-ethyl]-amide]",79
10,"O=C(NCc1cccs1)C1=NOC2(CCN(C(=O)c3cccc(Cl)c3F)CC2)C1 [Example 146, 8-(3-chloro-2-fluorobenzoyl)-1-oxa-2,8-diaza-spiro[4,5]dec-2-ene-3-carboxylic acid (thiophen-2-ylmethyl)-amide]",67
11,"O=C(NCCCc1ccccc1)C1=NOC2(CCN(S(=O)(=O)c3ccc(F)cc3)CC2)C1 [Example 193, 8-(4-fluoro-benzenesulphonyl)-1-oxa-2,8-diaza-spiro[4,5]dec-2-ene-3-carboxylic acid (3-phenyl-propyl)-amide]",66
12,"O=C(NCc1cccs1)C1=NOC2(CCN(S(=O)(=O)c3ccc(Cl)cc3)CC2)C1 [Example 127, 8-(4-chloro-benzenesulphonyl)-1-oxa-2,8-diaza-spiro[4,5]dec-2-ene-3-carboxylic acid (thiophen-2-ylmethyl)-amide]",70
13,"CCc1ccc(C(=O)N2CCC3(CC2)CC(C(=O)NCc2cccs2)=NO3)cc1 [Example 52, 8-(4-ethyl-benzoyl)-1-oxa-2,8-diaza-spiro[4,5]dec-2-ene-3-carboxylic acid (thiophen-2-ylmethyl)-amide]",63
14,"O=C(NCC1CC1)C1=NOC2(CCN(C(=O)c3ccc(SC(F)(F)F)cc3)CC2)C1 [Example 108, 8-(4-trifluoromethylsulphanyl-benzoyl)-1-oxa-2,8-diaza-spiro[4,5]dec-2-ene-3-carboxylic acid cyclopropylmethyl-amide]",43
15,"O=C(NCc1cccs1)C1=NOC2(CCN(S(=O)(=O)c3ccccc3Cl)CC2)C1 [Example 156, 8-(2-chloro-benzenesulphonyl)-1-oxa-2,8-diaza-spiro[4,5]dec-2-ene-3-carboxylic acid (thiophen-2-ylmethyl)-amide]",70
16,"O=C(NCc1cccs1)C1=NOC2(CCN(C(=O)c3cccc4ccccc34)CC2)C1 [Example 192, 8-(naphthalene-1-carbonyl)-1-oxa-2,8-diaza-spiro[4,5]dec-2-ene-3-carboxylic acid (thiophen-2-ylmethyl)-amide]",87
17,"CCOC(=O)C1CCCCN1C(=O)C1=NOC2(CCN(S(=O)(=O)c3ccc(Cl)s3)CC2)C1 (stereo not shown) [Example 155, 1-[8-(5-chloro-thiophene-2-sulphonyl)-1-oxa-2,8-diaza-spiro[4,5]dec-2-ene-3-carbonyl]-piperidine-2-carboxylic acid ethyl ester]",48

row,SMILES,"BTX bond, 10 μM, % inhibition [%]"
1,"COC(=O)C(Cc1c[nH]c2ccccc12)NC(=O)C1=NOC2(CCN(S(=O)(=O)c3ccc(OC(F)(F)F)cc3)CC2)C1 (stereo not shown) [Example 1, 3-(1H-indo1-3-yl)-2-{[8-(4-trifluoromethoxy-benzene-sulphonyl)-1-oxa-2,8-diaza-spiro[4,5]dec-2-ene-3-carbonyl]-amino}-propionic acid methyl ester]",68
2,"O=C(NCc1ccccc1)C1=NOC2(CCN(C(=O)c3ccc(Br)cc3)CC2)C1 [Example 212, 8-(4-bromo-benzoyl)-1-oxa-2,8-diaza-spiro[4,5]dec-2-ene-3-carboxylic acid benzylamide]",58
3,"O=C(C1=NOC2(CCN(S(=O)(=O)Cc3ccccc3)CC2)C1)N1CCN(Cc2ccc3ccccc3c2)CC1 [Example 6, (4-naphthalen-2-ylmethyl-piperazin-l-yl)-(8-phenylmethane-sulphonyl-1-oxa-2,8 diaza-spiro[4,5]dec-2-en-3-yl)-methanone]",49
4,"Cc1ccc(S(=O)(=O)N2CCC3(CC2)CC(C(=O)NCCN(C)C)=NO3)cc1 [Example 57, 8-(toluene-4-sulphonyl)-1-oxa-2,8-diaza-spiro[4,5]dec-2-ene-3-carboxylic acid (2-dimethylamino-ethyl)-amide]",45
5,"O=C(C1=NOC2(CCN(S(=O)(=O)c3cccs3)CC2)C1)N1CCN(C2CCCCCC2)CC1 [Example 3, (4-cycloheptyl-piperazin-l-yl)-[8-(thiophene-2-sulphonyl)-1-oxa-2,8-diaza-spiro [4,5]dec-2-en-3-yl]-methanone]",78
6,"O=C(NCc1cccc(F)c1)C1=NOC2(CCN(S(=O)(=O)c3cccs3)CC2)C1 [Example 24, 8-(thiophene-2-sulphonyl)-1-oxa-2,8-diaza-spiro[4,5]dec-2-ene-3-carboxylic acid 3-fluorobenzylamide]",41
7,"O=C(C1=NOC2(CCN(S(=O)(=O)c3cccc(C(F)(F)F)c3)CC2)C1)N1CCC(Cc2ccccc2)CC1 [Example 211, (4-benzyl-piperidin-l-yl)-[8-(3-trifluoromethyl-benzene-sulphonyl)-1-oxa-2,8-diaza-spiro[4,5]dec-2-en-3-yl]-methanone]",48
8,"O=C(NC(c1ccccc1)c1ccccc1)C1=NOC2(CCN(S(=O)(=O)c3ccc(Cl)s3)CC2)C1 [Example 40, 8-(5-chloro-thiophene-2-sulphonyl)-1-oxa-2,8-diaza-spiro[4,5]dec-2-ene-3 carboxylic acid benzhydryl-amide]",47
9,"Cc1ccc(C(C)NC(=O)C2=NOC3(CCN(S(=O)(=O)c4ccc(C)cc4)CC3)C2)cc1 (stereo not shown) [Example 45, 8-(toluene-4-sulphonyl)-1-oxa-2,8-diaza-spiro[4,5]dec-2-ene-3-carboxylic acid (1-p-tolyl-ethyl)-amide]",49
10,"O=C(NC1CCCC1)C1=NOC2(CCN(C(=O)c3ccc([N+](=O)[O-])cc3Cl)CC2)C1 [Example 5, 8-(2-chloro-4-nitro-benzoyl)-1-oxa-2,8-diaza-spiro[4,5]dec-2-ene-3-carboxylic acid cyclopentylamide]",64
11,"CCOC(=O)C1CCCCN1C(=O)C1=NOC2(CCN(C(=O)c3cc(C(C)(C)C)oc3C)CC2)C1 (stereo not shown) [Example 179, 1-[8-(5-tert-butyl-2-methyl-furan-3-carbonyl)-1-oxa-2,8-diaza-spiro[4,5]dec-2-ene-3-carbonyl]-piperidine-2-carboxylic acid ethyl ester]",55
12,"O=C(C1=NOC2(CCN(S(=O)(=O)c3cc(Cl)ccc3Cl)CC2)C1)N(CCc1ccccc1)Cc1ccccc1 [Example 98, 8-(2,5-dichloro-benzenesulphonyl)-1-oxa-2,8-diaza-spiro[4,5]dec-2-ene-3-carboxylic acid benzyl-phenethyl-amide]",56
13,CCOP(=O)(Cc1ccc(NC(=O)C2=NOC3(CCN(S(=O)(=O)Cc4ccccc4)CC3)C2)cc1)OCC [Example 2],55
14,"O=C(NCC1COc2ccccc2O1)C1=NOC2(CCN(S(=O)(=O)c3ccc(Cl)s3)CC2)C1 (stereo not shown) [Example 194, 8-(5-chloro-thiophene-2-sulphonyl)-1-oxa-2,8-diaza-spiro[4,5]dec-2-ene-3-carboxylic acid (2,3-dihydro-benzo[1,4]dioxin-2-ylmethyl)-amide]",68
15,"Cc1ccc(F)c(C(=O)N2CCC3(CC2)CC(C(=O)NCc2cccs2)=NO3)c1F [Example 170, 8-(2,6-difluoro-3-methyl-benzoyl)-1-oxa-2,8-diaza-spiro[4,5]dec-2-ene-3-carboxylic acid (thiophen-2-ylmethyl)-amide]",59
16,O=C(C1=NOC2(CCN(S(=O)(=O)c3cccc(C(F)(F)F)c3)CC2)C1)N1CCN(c2cc(C(F)(F)F)ccn2)CC1 [Example 119],72
17,"Cc1ccccc1N1CCN(C(=O)C2=NOC3(CCN(S(=O)(=O)c4cccs4)CC3)C2)CC1 [Example 27, [8-(thiophene-2-sulphonyl)-1-oxa-2,8-diaza-spiro[4,5]dec-2-en-3-yl]-(4-o-tolyl-piperazin-1-yl)-methanone]",74
